Data taken from patent US20040156869A1, “2-substituted quinazolin-4-ylamine analogues” (Neurogen Corporation, priority 2002, published 2004).

Molecular target: human capsaicin receptor (VR1) (Homo sapiens, UniProt Q8NER1)
Test: Capsaicin receptor binding assay ([3H]RTX competition, VR1-transfected HEK293 membranes)
Conditions: not given

Chain of human capsaicin receptor (VR1) (Q8NER1 whole entry): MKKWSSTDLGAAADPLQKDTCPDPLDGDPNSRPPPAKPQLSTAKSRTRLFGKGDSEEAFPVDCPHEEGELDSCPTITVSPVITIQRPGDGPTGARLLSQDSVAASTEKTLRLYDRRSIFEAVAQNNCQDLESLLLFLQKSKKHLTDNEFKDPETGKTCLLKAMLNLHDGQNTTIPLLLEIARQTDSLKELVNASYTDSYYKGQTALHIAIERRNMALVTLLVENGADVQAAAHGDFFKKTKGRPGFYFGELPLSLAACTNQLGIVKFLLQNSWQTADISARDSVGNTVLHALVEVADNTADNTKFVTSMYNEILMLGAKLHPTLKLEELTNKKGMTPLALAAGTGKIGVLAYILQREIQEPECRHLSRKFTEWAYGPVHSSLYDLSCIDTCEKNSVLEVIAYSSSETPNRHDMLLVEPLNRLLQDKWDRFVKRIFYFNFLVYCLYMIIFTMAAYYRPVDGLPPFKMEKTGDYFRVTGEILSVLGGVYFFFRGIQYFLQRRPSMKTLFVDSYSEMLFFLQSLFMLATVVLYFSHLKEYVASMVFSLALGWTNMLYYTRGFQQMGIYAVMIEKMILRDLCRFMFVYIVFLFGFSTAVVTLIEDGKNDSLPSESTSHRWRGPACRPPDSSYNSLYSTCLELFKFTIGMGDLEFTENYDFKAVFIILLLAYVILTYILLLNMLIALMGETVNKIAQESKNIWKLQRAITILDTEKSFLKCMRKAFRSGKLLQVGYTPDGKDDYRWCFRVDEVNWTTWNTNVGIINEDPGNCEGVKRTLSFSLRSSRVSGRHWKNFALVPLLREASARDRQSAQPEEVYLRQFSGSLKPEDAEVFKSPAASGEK

Ki [µM]	Compound
< 1	CC(C)N(C)Cc1nc(Nc2ccc(C(F)(F)F)cc2)c2ccc(-c3ncccc3C(F)(F)F)cc2n1 [Compound 338]
< 1	COCCN(CCOC)Cc1nc(Nc2ccc(C(F)(F)F)cc2)c2ccc(-c3ncccc3C(F)(F)F)cc2n1 [Compound 344, [2-{[Bis-(2-methoxy-ethyl)-amino]-methyl}-7-(3-trifluoromethyl-pyridin-2-yl)-quinazolin-4-yl]-(4-trifluoromethyl-phenyl)-amine]
< 1	CCCCCN(CCCCC)Cc1nc(Nc2ccc(C(F)(F)F)cc2)c2ccc(-c3ncccc3C(F)(F)F)cc2n1 [Compound 345, [2-Dipentylaminomethyl-7-(3-trifluoromethyl-pyridin-2-yl)-quinazolin-4-yl]-(4-trifluoromethyl-phenyl)-amine]
< 1	CCCCCCN(CCCCCC)Cc1nc(Nc2ccc(C(F)(F)F)cc2)c2ccc(-c3ncccc3C(F)(F)F)cc2n1 [Compound 346, [2-Dihexylaminomethyl-7-(3-trifluoromethyl-pyridin-2-yl)-quinazolin-4-yl]-(4-trifluoromethyl-phenyl)-amine]
< 1	CC(c1ccccc1)N(C)Cc1nc(Nc2ccc(C(F)(F)F)nc2)c2ccc(-c3ncccc3C(F)(F)F)cc2n1 (centres unmarked) [Compound 348, [2-{[Methyl-(1-phenyl-ethyl)-amino]-methyl}-7-(3-trifluoromethyl-pyridin-2-yl)-quinazolin-4-yl]-(6-trifluoromethyl-pyridin-3-yl)-amine]
< 1	CN(Cc1nc(Nc2ccc(C(F)(F)F)nc2)c2ccc(-c3ncccc3C(F)(F)F)cc2n1)C1CCc2ccccc21 (centres unmarked) [Compound 349, [2-[(Indan-1-yl-methyl-amino)-methyl]-7-(3-trifluoromethyl-pyridin-2-yl)-quinazolin-4-yl]-(6-trifluoromethyl-pyridin-3-yl)-amine]
< 1	CCC(c1ccccc1)N(C)Cc1nc(Nc2ccc(C(F)(F)F)nc2)c2ccc(-c3ncccc3C(F)(F)F)cc2n1 (centres unmarked) [Compound 350, [2-{[Methyl-1-(1-phenyl-propyl)-amino]-methyl}-7-(3-trifluoromethyl-pyridin-2-yl)-quinazolin-4-yl]-(6-trifluoromethyl-pyridin-3-yl)-amine]
< 1	CC1c2ccccc2CCN1Cc1nc(Nc2ccc(C(F)(F)F)nc2)c2ccc(-c3ncccc3C(F)(F)F)cc2n1 (centres unmarked) [Compound 351, [2-(1-Methyl-3,4-dihydro-1H-isoquinolin-2-ylmethyl)-7-(3-trifluoromethyl-pyridin-2-yl)-quinazolin-4-yl]-(6-trifluoromethyl-pyridin-3-yl)-amine]
< 1	FC(F)(F)c1ccc(Nc2nc(CN3CCc4ccccc4C3)nc3cc(-c4ncccc4C(F)(F)F)ccc23)cn1 [Compound 352, [2-(3,4-Dihydro-1H-isoquinolin-2-ylmethyl)-7-(3-trifluoromethyl-pyridin-2-yl)-quinazolin-4-yl]-(6-trifluoromethyl-pyridin-3-yl)-amine]
< 1	CN(Cc1cccc(F)c1)Cc1nc(Nc2ccc(C(F)(F)F)nc2)c2ccc(-c3ncccc3C(F)(F)F)cc2n1 [Compound 353]
< 1	Cc1ccccc1CN(C)Cc1nc(Nc2ccc(C(F)(F)F)nc2)c2ccc(-c3ncccc3C(F)(F)F)cc2n1 [Compound 354, [2-{[Methyl-(2-methyl-benzyl)-amino]-methyl}-7-(3-trifluoromethyl-pyridin-2-yl)-quinazolin-4-yl]-(6-trifluoromethyl-pyridin-3-yl)-amine]
< 1	CN(Cc1nc(Nc2ccc(C(F)(F)F)nc2)c2ccc(-c3ncccc3C(F)(F)F)cc2n1)Cc1ccccc1F [Compound 355, [2-{[(2-Fluoro-benzyl)-methyl-amino]-methyl}-7-(3-trifluoromethyl-pyridin-2-yl)-quinazolin-4-yl]-(6-trifluoromethyl-pyridin-3-yl)-amine]
< 1	CN(CCc1ccccc1)Cc1nc(Nc2ccc(C(F)(F)F)nc2)c2ccc(-c3ncccc3C(F)(F)F)cc2n1 [Compound 357, [2-[(Methyl-phenethyl-amino)-methyl]-7-(3-trifluoromethyl-pyridin-2-yl)-quinazolin-4-yl]-(6-trifluoromethyl-pyridin-3-yl)-amine]
< 1	FC(F)(F)c1ccc(Nc2nc(CN3CCCC3)nc3cc(-c4ncccc4C(F)(F)F)ccc23)cn1 [Compound 358, [2-Pyrrolidin-1-ylmethyl-7-(3-trifluoromethyl-pyridin-2-yl)-quinazolin-4-yl]-(6-trifluoromethyl-pyridin-3-yl)-amine]
< 1	FC(F)(F)c1ccc(Nc2nc(CN3CCCCC3)nc3cc(-c4ncccc4C(F)(F)F)ccc23)cn1 [Compound 359, [2-Piperidin-1-ylmethyl-7-(3-trifluoromethyl-pyridin-2-yl)-quinazolin-4-yl]-(6-trifluoromethyl-pyridin-3-yl)-amine]
< 1	CC1CCN(Cc2nc(Nc3ccc(C(F)(F)F)nc3)c3ccc(-c4ncccc4C(F)(F)F)cc3n2)CC1 [Compound 360, [2-(4-Methyl-piperidin-1-ylmethyl)-7-(3-trifluoromethyl-pyridin-2-yl)-quinazolin-4-yl]-(6-trifluoromethyl-pyridin-3-yl)-amine]
< 1	FC(F)(F)c1ccc(Nc2nc(CN3CCCCCC3)nc3cc(-c4ncccc4C(F)(F)F)ccc23)cn1 [Compound 361, [2-Azepan-1-ylmethyl-7-(3-trifluoromethyl-pyridin-2-yl)-quinazolin-4-yl]-(6-trifluoromethyl-pyridin-3-yl)-amine]
< 1	FC(F)(F)c1ccc(Nc2nc(CN3CCCCCCC3)nc3cc(-c4ncccc4C(F)(F)F)ccc23)cn1 [Compound 362, [2-Azocan-1-ylmethyl-7-(3-trifluoromethyl-pyridin-2-yl)-quinazolin-4-yl]-(6-trifluoromethyl-pyridin-3-yl)-amine]
< 1	CC1CCN(Cc2nc(Nc3ccc(C(F)(F)F)nc3)c3ccc(-c4ncccc4C(F)(F)F)cc3n2)CC(C)(C)C1 (centres unmarked) [Compound 363, (6-Trifluoromethyl-pyridin-3-yl)-[7-(3-trifluoromethyl-pyridin-2-yl)-2-(3,3,5-trimethyl-azepan-1-ylmethyl)-quinazolin-4-yl]-amine]
< 1	FC(F)(F)c1ccc(Nc2nc(CN3CCC4(CC3)OCCO4)nc3cc(-c4ncccc4C(F)(F)F)ccc23)cn1 [Compound 364, [2-(1,4-Dioxa-8-aza-spiro[4.5]dec-8-ylmethyl)-7-(3-trifluoromethyl-pyridin-2-yl)-quinazolin-4-yl]-(6-trifluoromethyl-pyridin-3-yl)-amine]
< 1	FC(F)(F)c1ccc(Nc2nc(CN3CCCC4CCCCC43)nc3cc(-c4ncccc4C(F)(F)F)ccc23)cn1 (centres unmarked) [Compound 365, [2-(Octahydro-quinolin-1-ylmethyl)-7-(3-trifluoromethyl-pyridin-2-yl)-quinazolin-4-yl]-(6-trifluoromethyl-pyridin-3-yl)-amine]
< 1	CN(C)Cc1nc(Nc2ccc(C(F)(F)F)nc2)c2ccc(-c3ncccc3C(F)(F)F)cc2n1 [Compound 366, [2-Dimethylaminomethyl-7-(3-trifluoromethyl-pyridin-2-yl)-quinazolin-4-yl]-(6-trifluoromethyl-pyridin-3-yl)-amine]

Same assay, conditions: Table III; [3H]RTX competition binding, capsaicin receptor

Ki [µM]	Compound
< 1	CC1CC(C)CN(Cc2nc(Nc3ccc(C(F)(F)F)cc3)c3ccc(-c4ncccc4C(F)(F)F)cc3n2)C1 (centres unmarked) [Compound 347, [2-(3,5-Dimethyl-piperidin-1-ylmethyl)-7-(3-trifluoromethyl-pyridin-2-yl)-quinazolin-4-yl]-(4-trifluoromethyl-phenyl)-amine]
